# In patent US6451307B1, “3′-exonuclease, production and use thereof” (Aventis Research & Technologies GmbH & Co. KG, priority 1998, dated 2002):
# “Also recorded” adds a separate entry of the source.
# Tests used:
# Format in all cases: biochemical, bovine
# [1] = system: poly(A)-specific 3′-exonuclease activity; experiment: Substrate specificity: Km and Vmax for homopolymer-tailed RNA substrates (Lineweaver-Burke plot); details: Poly(A) Sepharose fraction; tail-labeled RNA substrates
# Procedure: (§1) The test conditions for the in-vitro deadenylation were as follows: 1 mM MgCl2, 2.5% (w/v) poly(vinyl alcohol) (Sigma P-8136, Mw 10,000), 100 mM KCl, 0.15 Unit RNAguard, from 5 to 20 fmol of RNA substrate, from 20 to 48% (v/v) buffer (20 mM HEPES (KOH), 0.2 mM EDTA, 0.5 mM DTT, 25% glycerol, pH 7) and the appropriate protein fraction (Åström, J. et al. (1992), see above). The reaction volume was 15 or 25 μl and the incubations were carried out at 30° C. The reactions were then terminated and RNA was purified as described in Moore, C. L. & Sharpe, P. A. (1985), see above. The RNA was analyzed by electrophoresis in 10% polyacrylamide (19:1 acrylamide/bisacrylamide)—7 M urea gels, followed by autoradiography of the resulting gels.
# (§2) The deadenylation activity was quantified as follows: L3(A30) RNA substrate, labeled with [α^32P]ATP, was incubated in an in-vitro deadenylation reaction. The reaction products were analyzed by 1D TLC using mobile solvent III (0.75 M K2HPO4, pH 3.5 (H3PO4)). The resulting PEI-Cellulose F plate was dried and scanned in a 400 S Phosphorimager (Molecular Dynamics). The fractions containing released [α^32P]AMP were determined. The quantity, in mol, of released AMP was calculated on the basis of the known specific activity of [α^32P]AMP in the RNA substrate. One unit of deadenylation activity corresponds to the release of 1 pmol of AMP/minute.
# The RNA substrate specificity of the activity was investigated in two experiments. In a first experiment, the RNA substrates L3(A30), ML45(U30), ML40(C32) and ML43(G30), whose homopolymeric tails had been radioactively labeled, were incubated in an in-vitro deadenylation test (see above). The release of radioactive mononucleotides was measured in the 1D TLC test (see above). The measurement results were used to calculate the Km and Vmax values for each RNA substrate using the Lineweaver-Burke plot (see Table II). In a second experiment, the substrate specificity was measured by incubating RNA substrates containing internal poly(A) segments, followed by plasmid-encoded RNA sequences of increasing length, with Poly(A) Sepharose fractions in an in-vitro deadenylation test. […] It follows from this that RNA tails composed of adenosine residues are the preferred substrate and that only 3′ end-located poly(A) tails are effectively degraded.
# [2] = system: poly(A)-specific 3′-exonuclease activity; experiment: Conditions for the in-vitro deadenylation: ions and spermidine (1D TLC); details: for decrease of activity as compared with the activity in the presence of Mg2+: 1 mM divalent ion, L3(A30) RNA; for decrease of activity as compared with the activity in the presence of Mg2+ / influence on deadenylation activity: Poly(A) Sepharose fraction; for influence on deadenylation activity: tail-labeled L3(A30) RNA
# Procedure: as §1, §2
# The conditions for measuring poly(A) deadenylation activity in accordance with the above-described deadenylation test were determined using Poly(A) Sepharose fractions as the enzyme source and poly(A) tail-labeled L3(A30) RNA as the substrate. The activity was measured in terms of the release of the mononucleotides in the 1D TLC test (see above). The requirement of monovalent (potassium and sodium) and divalent (magnesium, manganese, zinc and calcium) ions for this was investigated.
# [3] = system: poly(A)-specific 3′-exonuclease activity; experiment: Kinetics of the nuclease activity (time course, added poly(A)); details: 20 minutes, 0.5 μl Poly(A) Sepharose fraction, L3(A30) RNA
# Procedure: FIGS. 5A-C show the ongoing degradation of poly(A). The Poly(A) Sepharose fraction was incubated, under in-vitro deadenylation conditions, with X fmol of the L3(A30) RNA substrate which had been labeled with [α-^32P]UTP during in-vitro transcription. The reaction products were fractionated in a 10% polyacrylamide:bisacrylamide 19:1-7 M urea gel. S and P indicate the migration sites of the RNA substrate (S) and the product (P). […] The indicated quantities of poly(A) in ng were added to the reactions.
# The test conditions for the in-vitro deadenylation were as follows: 1 mM MgCl2, 2.5% (w/v) poly(vinyl alcohol) (Sigma P-8136, Mw 10,000), 100 mM KCl, 0.15 Unit RNAguard, from 5 to 20 fmol of RNA substrate, from 20 to 48% (v/v) buffer (20 mM HEPES (KOH), 0.2 mM EDTA, 0.5 mM DTT, 25% glycerol, pH 7) and the appropriate protein fraction (Åström, J. et al. (1992), see above). […] The RNA was analyzed by electrophoresis in 10% polyacrylamide (19:1 acrylamide/bisacrylamide)—7 M urea gels, followed by autoradiography of the resulting gels.
# In order to determine whether the nuclease activity degrades RNA substrates in a progressive or distributive manner, the kinetics was first of all determined in an in-vitro deadenylation reaction in the presence of 0.5 μl of a Poly(A) Sepharose fraction and x fmol of L3(A30) RNA substrate which had been labeled overall. […]
Compound,Km [1] [µM],decrease of activity as compared with the activity in the presence of Mg2+ [2] [%],influence on deadenylation activity [2],other results
poly(G),0.007,–,–,–
[Ca+2] [Ca^2+],–,0.7,–,–
poly(A),0.01,–,–,effect of added poly(A) on the deadenylation reaction [3]: inhibits the reaction
poly(C),0.01,–,–,–
[Mg+2] [magnesium ions],–,–,–,optimum concentration of ion for deadenylation activity [2]: 1 mM
NCCCCNCCCN [spermidine],–,–,"no influence on the activity; also recorded: if anything, it is inhibited both at low and at high salt concentrations",–
[Mn+2] [Mn^2+],–,17,also active in the presence of Mn^2+,–
[K+] [potassium ions],–,–,activity is higher in the presence of potassium ions than in the presence of sodium ions,–
[Zn+2] [Zn^2+],–,2,–,–
poly(U),0.02,–,–,–
